Assays:
[1] = tested on: H2B-GFP-PTEN-P2 tumor cells; test: In vivo effect combined with castration in the pseudo-orthotopic chamber model for prostate cancer; design: species or system mouse; settings: orally once a day in sesame seed oil, equimolar to 1 mg/kg plumbagin, castrated male nu/nu mice
From the text: A syngeneic pseudo-orthotopic in vivo model was developed to study the early steps of prostate cancer. Chambers are surgically placed into the dorsal skinfold of male mice. Briefly, male mice (25-30 g body weight) are anesthetized and placed on a heating pad. Two symmetrical titanium frames are implanted into the dorsal skinfold. A circular layer is excised from one of the skin layers. The underlying muscle and subcutaneous tissues are covered with a glass coverslip incorporated in one of the frames. After a recovery period of 2-3 days, stoma tissue and tumor cells are carefully placed in the chamber.
Male Nude mice (25-35 g body weight) are anesthetized (7.3 mg ketamine hydrochloride and 2.3 mg xylazine/100 g body weight, i.p.) and placed on a heating pad. Two symmetrical titanium frames are implanted into a dorsal skinfold, so as to sandwich the extended double layer of skin. […]
Liquid overlay plates are generated using 1% Agarose melted in DMEM that is added to round-bottom 96-well plates (50 ul/well). […] Viability is determined using Trypan blue. […]. The size of the implanted spheroid can be determined precisely to minimize variations between animals. […]
Fluorescence microscopy is performed using a Mikron Instrument Microscope equipped with epi-illuminator and video-triggered stroboscopic illumination from a xenon arc (MV-7600, EG&G). […]

[2] = tested on: PTEN-P2/GFP prostate cancer cells; test: Effect of 1,4-naphthoquinone analogs on PTEN-P2/GFP cell proliferation (WST-1 cell viability, 24 h); format: cell-based; settings: Mus musculus, WST-1, medium with 10% FBS and DHT, read-out: PTEN-P2/GFP cell proliferation, percent of control
Procedure, shortened: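 PTEN-P2/GFP cells, 8000/well, in medium with 10% FBS and 10^−8M DHT, dosed next day with increasing analog concentrations (constant DMSO) for 24 h at 37 °C, 5% CO2. Viability read by WST-1 after 3 h at 37 °C, OD at 460 nm.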

[3] = tested on: human breast cancer SKBR-3 cells; test: Dose response of 1,4-naphthoquinone analogs in human breast cancer cells SKBR-3 (WST-1, 24 h); format: cell-based
Protocol: (§1) 100 microliters of human breast cancer SKBR-3 cells were plated at a density of 8000 cells/well in 96-well plates (triplicates) in growing medium containing 10% Fetal Bovine Serum, penicillin/streptomycin, and glutamine. The next day, increasing concentrations of a 1,4-naphthoquinone analog (diluted from 10 mM DMSO stock solutions) were added. DMSO used as solvent for all analogs, was kept constant through the 96-well plates. The control consisted of DMSO alone. The cells were subsequently incubated for 24 hours at 37° C. and 5% CO2 in normal cell growth conditions. Cell viability was assessed by adding 9 μL/well of WST-1 reagent (Clontech), which measured mitochondrial activity of live cells. […] The incubation time was 3 hours at 37° C. Optical density of the cell samples was measured at 460 nm, by using plate reader Spectra Max 250 (Molecular Devices). The drug was determined to be cytotoxic when OD values show an inverse correlation with analog concentrations.

[4] = tested on: human fibrosarcoma HT1080 cells; test: Dose response of 1,4-naphthoquinone analogs in human fibrosarcoma cells HT1080 (WST-1, 24 h); format: cell-based
Protocol: as §1, with “fibrosarcoma HT1080” for “breast cancer SKBR-3”

SMILES | in vivo efficiency of combination treatment with castration compared with plumbagin and castration (FIG. 9) [1] | activity at 2 µM [2] | activity at 3 µM [2] | activity at 4 µM [2] | activity at 5 µM [2] | activity at 6 µM [2] | activity at 7 µM [2] | activity at 10 µM [2] | activity at 25 µM [2] | other results
O=C1C=C(Nc2ccccc2)C(=O)c2ccccc21 [Analog F35, 2-(phenylamino)naphthalene-1,4-dione] | more efficient in vivo than treatment with plumbagin and castration | – | – | – | – | – | – | – | – | –
O=C1C=C(Oc2c(F)c(F)c(F)c(F)c2F)C(=O)c2ccccc21 [Analog F02, 2-(2,3,4,5,6-pentafluorophenoxy)-1,4-naphthoquinone] | – | 97.9% | 94.8% | 93.3% | 90.3% | 82.6% | 74.3% | 47.6% | 12.3% | activity at 15 µM ([2]; 15 μM): 28.7%; human SKBR-3 cell proliferation, percent of control ([3]; 1.2 μM): 107.66% of control; human SKBR-3 cell proliferation, percent of control ([3]; 2.5 μM): 116.47% of control; human SKBR-3 cell proliferation, percent of control ([3]; 5 μM): 107.37% of control; human SKBR-3 cell proliferation, percent of control ([3]; 7.5 μM): 94.47% of control; human SKBR-3 cell proliferation, percent of control ([3]; 10 μM): 75.45% of control; human SKBR-3 cell proliferation, percent of control ([3]; 15 μM): 35.60% of control; human SKBR-3 cell proliferation, percent of control ([3]; 20 μM): 3.02% of control; proliferation of human fibrosarcoma HT1080 cells, percent of control ([4]; 1.2 μM): 84.28% of control; proliferation of human fibrosarcoma HT1080 cells, percent of control ([4]; 2.5 μM): 82.46% of control; proliferation of human fibrosarcoma HT1080 cells, percent of control ([4]; 5 μM): 82.96% of control; proliferation of human fibrosarcoma HT1080 cells, percent of control ([4]; 7.5 μM): 76.72% of control; proliferation of human fibrosarcoma HT1080 cells, percent of control ([4]; 10 μM): 74.71% of control; proliferation of human fibrosarcoma HT1080 cells, percent of control ([4]; 15 μM): 65.17% of control; proliferation of human fibrosarcoma HT1080 cells, percent of control ([4]; 20 μM): 63.04% of control
COc1cccc2c1C(=O)C=CC2=O [Analog F51, 5-methoxy-1,4-naphthoquinone] | more efficient in vivo than treatment with plumbagin and castration | 104% | 105% | 105% | 103% | 94% | 85.7% | 43.4% | 9.58% | activity at 1 µM ([2]; 1 μM): 103%; activity at 50 µM ([2]; 50 μM): 10.3%
